Laboratory results: patent publication US20250042961A1, “P53 PEPTIDOMIMETIC MACROCYCLES” (MERCK SHARP & DOHME LLC, priority 2021, published 2025)
Like-named read-outs stand apart in the source and are kept apart here. *1 amine or outer side, *2 acyl side, *3 side chain or, on linkers, in order; H or OH if unused. Where a SMILES comes first, the peptide text is derived from it. Bridges are numbered along the chain shown (N, C = ends). [ ]: non-standard residue; d: D form. ξ: configuration not given here. ξαMeNle(6-ylidene) = CC(CCCC=[*:3])(N[*:1])C(=O)[*:2]; dPhe(4-CF3) = N[C@H](Cc1ccc(C(F)(F)F)cc1)C(=O)O; dTrp(6-F) = N[C@H](Cc1c[nH]c2cc(F)ccc12)C(=O)O

Legend:
[1] = target: T1, MDM2 (1-125) (Homo sapiens, UniProt Q00987); test: Competitive fluorescence anisotropy assay (FP Kd MDM2); type: binding
T1 construct: GST (N); His6 (N); TEV cleavage site ENLYFQG (N); made in house; host or cells: Escherichia coli BL21 (DE3) Rosetta T1R
Text: For use in the peptide binding assay, a human MDM2 1-125 sequence was cloned into a pNIC-GST vector. The TEV (tobacco etch virus) cleavage site was changed from ENLYFQS (SEQ ID NO: 13) to ENLYFQG (SEQ ID NO: 14) to give a fusion protein with the following sequence:
[P] is the protein concentration (MDM2), [L] is the labeled peptide concentration, r is the anisotropy measured, r0 is the anisotropy of the free peptide, rb is the anisotropy of the MDM2-FAM-labeled peptide complex, Kd is the dissociation constant, [L]t is the total FAM labeled peptide concentration, and [P]t is the total MDM2 concentration. […] These values were then used to determine apparent Kd values of the respective competing ligands in subsequent competition assays in fluorescence anisotropy experiments. MDM2 and MDM4 competition experiments were performed with their respective concentrations held constant at 250 nM and 75 nM, in the presence of 50 nM of FAM-labeled 12/1. The competing molecules were then titrated against the complex of the FAM-labeled peptide and protein. Apparent Kd values were determined by fitting the experimental data to the equations shown below:
[L]st and [L]t denote labeled ligand and total unlabeled ligand input concentrations, respectively. Kd2 is the dissociation constant of the interaction between the unlabeled ligand and the protein.
In all competition experiments, it is assumed that [P]t>[L]st, otherwise considerable amounts of free labeled ligand would always be present and would interfere with measurements. Kd1 is the apparent Kd for the labeled peptide used and has been experimentally determined as described in the previous paragraph. The FAM-labeled peptide was dissolved in dimethyl sulfoxide (DMSO) at 1 mM and diluted into experimental buffer. Readings were carried out with an Envision Multilabel Reader (PerkinElmer). Experiments were carried out in PBS (2.7 mM KCl, 137 mM NaCl, 10 mM Na2HPO4 and 2 mM KH2PO4 (pH 7.4)) and 0.1% Tween-20 buffer. All titrations were carried out in triplicate. Curve-fitting was carried out using Prism 4.0 (GraphPad®). […] Negative control titrations of the ligands under investigation were also carried out with the fluorescently labeled peptide (in the absence of MDM2) to ensure no interactions were occurring between the ligands and the FAM-labeled peptide. […] Measurements were taken a minimum of three times (biological replicates) and values are reported as geometric means of the replicates.

[2] = Helicity stated in text (method not given); type: physicochemical; conditions: aqueous solution for compound 6
[3] = Solubility (PBS, pH 7)
[4] = test system: p53 responsive β-lactamase reporter in HCT116 cells; test: p53 beta-lactamase reporter gene cellular functional assay; type: cell-based
Description: HCT116 cells were stably transfected with a p53 responsive β-lactamase reporter and expanded in McCoy's 5A Medium with 10% fetal bovine serum (FBS), Blasticidin, and Penicillin/Streptomycin and then transferred to 1.5 mL freezing vials and stored under liquid nitrogen in growth media containing 5% DMSO. […] The cells were then seeded into a 384-well plate at a density of 8000 cells per well. […] The final working concentration of DMSO was 0.5%. β-lactamase activity was detected using the ToxBLAzer Dual Screen (Invitrogen), as per the manufacturer's instructions. Measurements were made using the Envision multiplate reader (PerkinElmer). […] Measurements were taken a minimum of three times (biological replicates) and values are reported as geometric means of the replicates.

[5] = physchem
[6] = test system: Jump-In T-REx CHO-K1 BLA cells; test: Tetracycline beta-lactamase reporter gene cellular assay (counterscreen); type: cell-based
Description: This assay was based on Jump-In™ T-REx™ CHO-K1 BLA cells containing a stably integrated β-lactamase under the control of an inducible cytomegalovirus (CMV) promoter. Cells were maintained in Dulbecco's Minimal Eagle Medium (DMEM) with 10% fetal bovine serum (FBS), Blasticidin, and Penicillin/Streptomycin and then transferred to 1.5 mL freezing vials and stored under liquid nitrogen in growth media containing 5% DMSO. […] Cells were seeded into a 384-well plate at a density of 4000 cells per well. […] The final working concentration of DMSO was 0.5%. β-lactamase activity was detected using the ToxBLAzer Dual Screen (Invitrogen), as per the manufacturer's instructions. Measurements were carried out using the Envision multiplate reader (PerkinElmer). Counterscreen activity was defined as the amount of β-lactamase activity induced by tetracycline. Measurements were taken a minimum of three times (biological replicates) and values are reported as geometric means of the replicates.

T1 sequence (Q00987 with tags, fused parts or gaps): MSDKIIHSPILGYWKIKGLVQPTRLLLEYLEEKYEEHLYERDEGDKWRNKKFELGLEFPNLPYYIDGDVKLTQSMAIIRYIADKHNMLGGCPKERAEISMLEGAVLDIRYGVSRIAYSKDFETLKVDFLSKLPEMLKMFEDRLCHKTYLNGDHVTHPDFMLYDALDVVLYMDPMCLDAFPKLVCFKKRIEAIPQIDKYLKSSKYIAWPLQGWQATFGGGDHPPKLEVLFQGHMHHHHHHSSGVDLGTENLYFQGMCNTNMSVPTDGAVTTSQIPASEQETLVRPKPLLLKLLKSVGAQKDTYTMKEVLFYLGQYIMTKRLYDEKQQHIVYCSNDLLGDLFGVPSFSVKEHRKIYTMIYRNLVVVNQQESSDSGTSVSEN

## CC(=O)N[C@@H](C(=O)N[C@H](C)C(=O)N[C@H](Cc1c[nH]c2cc(F)ccc12)C(=O)N[C@H](Cc1ccc(O)cc1)C(=O)N[C@H](C)C(=O)NC1(C)CCC/C=C\CCCC(C)(C(=O)N[C@H](CC(C)C)C(=O)N[C@H](CO)C(=O)N[C@H](C)C(=O)N[C@H](Cc2ccccc2)C(=O)N[C@H](C)C(=O)N[C@H](C)C(=O)N[C@H](C)C(=O)N[C@H](C)C(N)=O)NC(=O)[C@@H](CCC(N)=O)NC(=O)[C@@H](CCC(=O)O)NC(=O)[C@@H](Cc2ccc(C(F)(F)F)cc2)NC1=O)[C@H](C)O.N (stereo partly drawn) [Compound 6] (Ac-[dT][dA][dTrp(6-F)][dY][dA][ξαMeNle(6-ylidene)][dPhe(4-CF3)][dE][dQ][ξαMeNle(6-ylidene)][dL][dS][dA][dF][dA][dA][dA][dA]-NH2; staple (Z) 6-10)
[1]
  Kd: 0.03 µM
[2]
  helicity: about 65%
[3]
  solubility: 146 µM
[4]; read-out: p53 activity EC50 (0% FBS, 4 h), 0% FBS, 4 h
  EC50: 9.65 µM
[4]; read-out: p53 activity EC50 (10% FBS, 16 h), 10% FBS, 16 h
  EC50: 1.75 µM
[5]
  chromatographic logD: 3.06
[6]; read-out: Counter screen EC50 (0% FBS, 4 h), 0% FBS, 4 h
  EC50: > 50 µM
[6]; read-out: Counter screen EC50 (10% FBS, 16 h), 10% FBS, 16 h
  EC50: > 50 µM
